Tests used:
male MDD subjects = test: Clinical study of creatine monohydrate in male MDD subjects (HAMD, BDI); format: in vivo, human; settings: 5 g/day creatine monohydrate as a powder vs placebo, 0 to 8 weeks, FIGS. 1A and 1B
Description: FIGS. 1A and 1B show clinical assessment data of male subjects having MDD upon treatment with placebo (grey lines) or creatine monohydrate (5 g/day, black lines) for 0 to 8 weeks. Clinical assessment was performed using the Hamilton Depressing Rating Scale (FIG. 1A) or the Beck Depression Inventory scale (FIG. 1B).
A clinical study was performed to study the effect of creatine administration on male MDD subjects. A total of 6 male subjects (mean age of 42.7 years; age range 27 to 63) were enrolled in this study. Among the subjects, 5 subjects (mean age of 38.6 years; age range of 27 to 59) underwent at least one follow-up assessment. Three subjects received 5 g/day creatine monohydrate (as a powder), and two subjects received a placebo. The MDD symptoms of the subjects were assessed using the Hamilton Depression Rating Scale (HAMD) (FIG. 1A) or the Beck Depression Inventory (BDI) (FIG. 1B). The baseline HAMD total score for intention-to-treat sample was 30.4 (standard deviation of 5.1) and the baseline BDI total score was 31 (standard deviation of 11.3).

[1] = tested on: adolescent MDD patients living at high altitude; test: Clinical study of creatine monohydrate in adolescent MDD patients living at high altitude (CDRS); format: in vivo, human; settings: adolescents with MDD, Salt Lake City (4,300 feet), 5 g/day creatine monohydrate as a powder, 1 to 10 weeks
Description: Clinical assessment was performed using the Children's Depression Rating Scale (CDRS).
A clinical study was performed to determine the effect of creatine on adolescent MDD patients living at high altitude (Salt Lake City; elevation of 4,300 feet). In this study, three adolescents diagnosed as having MDD and living at high altitude were administered 5 g/day of creatine monohydrate (as a powder). The subjects in the study were monitored using the Children's Depression Rating Scale (CDRS). The study was performed for 1 to 10 weeks.

In the case of `CN(CC(=O)O)C(=N)N.O` [creatine, creatine monohydrate], the “symptoms of MDD, Hamilton Depression Rating Scale (HAMD) and Beck Depression Inventory (BDI)” value (male MDD subjects) is reported as “reduces the symptoms of MDD in male subjects”, the “symptoms of MDD in patients living at high altitude” value [1] is reported as “reduces the symptoms of MDD in patients living at high altitude” and the “Children's Depression Rating Scale (CDRS) score” value ([1]; after failing an SSRI trial, FIG. 2) is reported as “reduction in CDRS score”.
